Literature values, collected in patent US20120263660A1, “Hair Loss Treatment” (POP TEST CORTISOL LLC, priority 2011, published 2012).

How the values were obtained:
[1] = target: T1, glucocorticoid receptor [GR] (Homo sapiens, UniProt P04150); settings: disclosed in U.S. Pat. No. 6,011,025
T1 sequence (P04150 1-777): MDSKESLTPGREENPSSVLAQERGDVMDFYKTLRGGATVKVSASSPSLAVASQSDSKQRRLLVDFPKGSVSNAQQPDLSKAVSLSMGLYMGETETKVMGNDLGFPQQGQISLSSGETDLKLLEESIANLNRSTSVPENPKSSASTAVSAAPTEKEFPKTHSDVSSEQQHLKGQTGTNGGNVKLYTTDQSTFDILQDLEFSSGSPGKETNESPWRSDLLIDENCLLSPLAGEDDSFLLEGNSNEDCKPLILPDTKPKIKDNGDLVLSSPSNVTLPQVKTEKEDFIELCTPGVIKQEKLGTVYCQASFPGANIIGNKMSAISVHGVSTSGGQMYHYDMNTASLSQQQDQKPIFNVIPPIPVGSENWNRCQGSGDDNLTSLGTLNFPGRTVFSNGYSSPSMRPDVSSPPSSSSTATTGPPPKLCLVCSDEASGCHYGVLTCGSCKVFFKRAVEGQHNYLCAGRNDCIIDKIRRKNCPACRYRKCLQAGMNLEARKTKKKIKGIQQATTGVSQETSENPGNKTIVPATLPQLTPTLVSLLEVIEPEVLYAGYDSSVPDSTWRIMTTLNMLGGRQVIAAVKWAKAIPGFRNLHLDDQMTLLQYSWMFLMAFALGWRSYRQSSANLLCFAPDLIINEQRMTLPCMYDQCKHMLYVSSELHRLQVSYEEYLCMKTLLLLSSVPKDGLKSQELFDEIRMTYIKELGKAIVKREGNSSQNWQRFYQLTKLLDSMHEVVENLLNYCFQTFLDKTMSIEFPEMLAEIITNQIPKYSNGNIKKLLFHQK

[2] = disclosed in U.S. Pat. No. 6,011,025
[3] = disclosed in U.S. Pat. No. 6,011,025; remark: listed apart in the source
[4] = target: T2, progesterone receptor (Homo sapiens, UniProt P06401); settings: specificity for GR blockade
T2 sequence (P06401 1-933): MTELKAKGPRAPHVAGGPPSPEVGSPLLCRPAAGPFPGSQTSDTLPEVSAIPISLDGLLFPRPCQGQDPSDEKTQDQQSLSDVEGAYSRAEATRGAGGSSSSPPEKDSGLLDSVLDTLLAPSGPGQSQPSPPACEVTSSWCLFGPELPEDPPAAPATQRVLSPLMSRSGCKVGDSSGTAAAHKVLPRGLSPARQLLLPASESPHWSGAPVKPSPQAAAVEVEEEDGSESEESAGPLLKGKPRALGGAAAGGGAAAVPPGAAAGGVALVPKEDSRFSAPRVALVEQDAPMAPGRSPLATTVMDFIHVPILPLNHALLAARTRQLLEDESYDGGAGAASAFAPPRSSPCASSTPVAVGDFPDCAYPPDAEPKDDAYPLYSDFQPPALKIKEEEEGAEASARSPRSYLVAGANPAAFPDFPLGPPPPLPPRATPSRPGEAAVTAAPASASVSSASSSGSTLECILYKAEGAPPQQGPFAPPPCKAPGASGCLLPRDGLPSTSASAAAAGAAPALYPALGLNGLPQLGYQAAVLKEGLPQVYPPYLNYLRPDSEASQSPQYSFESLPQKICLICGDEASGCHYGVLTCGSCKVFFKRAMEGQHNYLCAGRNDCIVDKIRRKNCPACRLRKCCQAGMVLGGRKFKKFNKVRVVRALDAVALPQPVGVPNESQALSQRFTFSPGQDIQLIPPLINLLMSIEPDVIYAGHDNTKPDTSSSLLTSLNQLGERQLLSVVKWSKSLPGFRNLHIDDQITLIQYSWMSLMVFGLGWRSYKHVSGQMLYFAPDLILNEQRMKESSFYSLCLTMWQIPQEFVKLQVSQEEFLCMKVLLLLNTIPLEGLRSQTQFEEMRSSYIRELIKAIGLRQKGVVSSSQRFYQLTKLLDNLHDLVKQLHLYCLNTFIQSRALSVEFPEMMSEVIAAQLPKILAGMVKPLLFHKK

[5] = test system: estrogen receptor; settings: specificity for GR blockade
[6] = all phase I and phase II clinical trials already performed

- GR binding affinity [1]: high
- cross-binding to progesterone receptor [4]: without significant cross-binding
- cross-binding to estrogen receptor [5]: without significant cross-binding
Compound: CC#C[C@]1(O)CC[C@H]2[C@@H]3CCC4=CC(=O)CCC4=C3[C@@H](c3ccc4c(c3)OCO4)C[C@@]21C [ORG 34517]
- androgenic activity [2]: low
- progestagenic activity [3]: low
- significant toxicities and side effects [6]: none were identified
